Measured values published in patent publication US5292733A, “Cephalosporin compounds” (Lucky Limited, priority 1991, dated 1994).
≈ marks a conversion by molar mass, not a printed value.

What was measured:
Test in all cases: Antibacterial activity MIC, two-fold agar dilution
Type in all cases: cell-based
[1] = test system: Acinetobacter calcoaceticus ATCC 15473; conditions: ATCC15473; Acinetobacter calcoaceticus ATCC 15473; Muller-Hinton agar, 37° C., 20 hours; read-out: Antibacterial Activity MIC
How it was run: (§1)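 Two-fold dilution series of compound in Muller-Hinton agar; 2 μl inoculum at 10^7 CFU/ml; 37° C. for 20 h; MIC determined.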

[2] = test system: Bacillus cereus ATCC 11778; conditions: ATCC11778; Bacillus cereus ATCC 11778; Muller-Hinton agar, 37° C., 20 hours; read-out: Antibacterial Activity MIC
How it was run: as §1

[3] = test system: Bacillus megaterium ATCC 9885; conditions: Priestia megaterium, ATCC9885; Bacillus megaterium ATCC 9885; Muller-Hinton agar, 37° C., 20 hours; read-out: Antibacterial Activity MIC
How it was run: as §1

[4] = test system: Citrobacter freundii ATCC 8090; conditions: ATCC8090; Citrobacter freundii ATCC 8090; Muller-Hinton agar, 37° C., 20 hours; read-out: Antibacterial Activity MIC
How it was run: as §1

[5] = test system: Enterobacter aerogenes ATCC 29751; conditions: Klebsiella aerogenes, ATCC29751; Enterobacter aerogenes ATCC 29751; Muller-Hinton agar, 37° C., 20 hours; read-out: Antibacterial Activity MIC
How it was run: as §1

[6] = test system: Enterobacter cloacae ATCC 27508; conditions: ATCC27508; Enterobacter cloacae ATCC 27508; Muller-Hinton agar, 37° C., 20 hours; read-out: Antibacterial Activity MIC
How it was run: as §1

[7] = test system: Escherichia coli ATCC 10536; conditions: ATCC10536, Muller-Hinton agar, 37° C., 20 hours
How it was run: as §1

[8] = test system: Escherichia coli ATCC 25922; conditions: ATCC25922, Muller-Hinton agar, 37° C., 20 hours
How it was run: as §1

[9] = test system: Klebsiella pneumoniae ATCC 10031; conditions: ATCC10031; Klebsiella pneumoniae ATCC 10031; Muller-Hinton agar, 37° C., 20 hours; read-out: Antibacterial Activity MIC
How it was run: as §1

[10] = test system: Micrococcus luteus ATCC 9341; conditions: ATCC9341; Micrococcus luteus ATCC 9341; Muller-Hinton agar, 37° C., 20 hours; read-out: Antibacterial Activity MIC
How it was run: as §1

[11] = test system: Morganella morganii ATCC 8076h; conditions: ATCC8076H, Muller-Hinton agar, 37° C., 20 hours
How it was run: as §1

[12] = test system: Proteus mirabilis ATCC 25933; conditions: ATCC25933; Proteus mirabilis ATCC 25933; Muller-Hinton agar, 37° C., 20 hours; read-out: Antibacterial Activity MIC
How it was run: as §1

[13] = test system: Proteus vulgaris ATCC 6059; conditions: ATCC6059; Proteus vulgaris ATCC 6059; Muller-Hinton agar, 37° C., 20 hours; read-out: Antibacterial Activity MIC
How it was run: as §1

[14] = test system: Providencia rettgeri ATCC 9250; conditions: ATCC9250, Muller-Hinton agar, 37° C., 20 hours
How it was run: as §1

[15] = test system: Pseudomonas aeruginosa ATCC 10145; conditions: ATCC10145; Pseudomonas aeruginosa ATCC 10145; Muller-Hinton agar, 37° C., 20 hours; read-out: Antibacterial Activity MIC
How it was run: as §1

[16] = test system: Pseudomonas aeruginosa ATCC 25619; conditions: ATCC25619; Pseudomonas aeruginosa ATCC 25619; Muller-Hinton agar, 37° C., 20 hours; read-out: Antibacterial Activity MIC
How it was run: as §1

[17] = test system: Pseudomonas aeruginosa ATCC 27853; conditions: ATCC27853; Pseudomonas aeruginosa ATCC 27853; Muller-Hinton agar, 37° C., 20 hours; read-out: Antibacterial Activity MIC
How it was run: as §1

[18] = test system: Salmonella typhimurium ATCC 14028; conditions: Salmonella enterica; Salmonella typhimurium ATCC 14028; Muller-Hinton agar, 37° C., 20 hours; read-out: Antibacterial Activity MIC
How it was run: as §1

[19] = test system: Serratia marcescens ATCC 27117; conditions: ATCC27117; Serratia marcescens ATCC 27117; Muller-Hinton agar, 37° C., 20 hours; read-out: Antibacterial Activity MIC
How it was run: as §1

[20] = test system: Shigella flexneri ATCC 11836; conditions: ATCC11836, Muller-Hinton agar, 37° C., 20 hours
How it was run: as §1

[21] = test system: Shigella sonnei ATCC 11060; conditions: ATCC11060, Muller-Hinton agar, 37° C., 20 hours
How it was run: as §1

[22] = test system: Staphylococcus aureus ATCC 10537; conditions: ATCC10537; Staphylococcus aureus ATCC 10537; Muller-Hinton agar, 37° C., 20 hours; read-out: Antibacterial Activity MIC
How it was run: as §1

[23] = test system: Staphylococcus aureus ATCC 6538p; conditions: ATCC6538P; Staphylococcus aureus ATCC 6538p; Muller-Hinton agar, 37° C., 20 hours; read-out: Antibacterial Activity MIC
How it was run: as §1

[24] = test system: Staphylococcus epidermidis ATCC 12228; conditions: ATCC12228; Staphylococcus epidermidis ATCC 12228; Muller-Hinton agar, 37° C., 20 hours; read-out: Antibacterial Activity MIC
How it was run: as §1

[25] = test system: Streptococcus faecalis ATCC 29212; conditions: Enterococcus faecalis, ATCC29212; Streptococcus faecalis ATCC 29212; Muller-Hinton agar, 37° C., 20 hours; read-out: Antibacterial Activity MIC
How it was run: as §1

With `CC[n+]1c(N)cc(SCC2=C(C(=O)[O-])N3C(=O)[C@@H](NC(=O)/C(=N\OC(C)C(=O)O)c4csc(N)n4)[C@H]3SC2)nc1N` (stereo partly drawn) [Compound I-20, (6R,7R)-7-[(Z)-2-(2-aminothiazol-4-yl)-2-(R,S-carboxyeth-1-oxyimino)acetamido]-3-(2,6-diamino-1-ethylprimidinium-4-yl)thiomethyl-3cephem-4-carboxylate] the MIC [1] was 8 µg/mL (≈ 12.8 µM), the MIC [2] was 128 µg/mL (≈ 205 µM) and the MIC [3] was 0.25 µg/mL (≈ 0.401 µM). For the same compound, the MIC [4] was 0.13 µg/mL (≈ 0.208 µM), the MIC [5] was 1 µg/mL (≈ 1.6 µM) and the MIC [6] was 0.016 µg/mL (≈ 0.0257 µM). For the same compound, the MIC [7] was 0.13 µg/mL (≈ 0.208 µM), the MIC [8] was 0.13 µg/mL (≈ 0.208 µM) and the MIC [9] was 0.063 µg/mL (≈ 0.101 µM). It also gave an MIC [10] of 0.25 µg/mL (≈ 0.401 µM), an MIC [11] of at most 0.008 µg/mL and an MIC [12] of 0.063 µg/mL (≈ 0.101 µM). It also gave an MIC [13] of 0.25 µg/mL (≈ 0.401 µM), an MIC [14] of at most 0.008 µg/mL and an MIC [15] of 4 µg/mL (≈ 6.41 µM). It also gave an MIC [16] of 1 µg/mL (≈ 1.6 µM), an MIC [17] of 2 µg/mL (≈ 3.21 µM) and an MIC [18] of 0.5 µg/mL (≈ 0.802 µM). For the same compound, the MIC [19] was 0.25 µg/mL (≈ 0.401 µM), the MIC [20] was 0.016 µg/mL (≈ 0.0257 µM) and the MIC [21] was 0.5 µg/mL (≈ 0.802 µM). The MIC [22] was 4 µg/mL (≈ 6.41 µM), the MIC [23] was 2 µg/mL (≈ 3.21 µM) and the MIC [24] was 4 µg/mL (≈ 6.41 µM). For the same compound, the MIC [25] was 128 µg/mL (≈ 205 µM).
For `C[n+]1c(N)cc(SCC2=C(C(=O)[O-])N3C(=O)[C@@H](NC(=O)/C(=N\OC(C)(C)C(=O)O)c4csc(N)n4)[C@H]3SC2)nc1N` [Compound I-12, (6R,7R)-7-[(Z)-2-(2-aminothiazol-4-yl)-2-(carboxyprop-2-oxyimino)acetamido]-3-(2,6-diamino-1-methylpyrimidinium-4-yl)thiomethyl-3-cephem-4-carboxylate], the MIC [1] was 8 µg/mL (≈ 12.8 µM), the MIC [2] was 128 µg/mL (≈ 205 µM) and the MIC [3] was 0.25 µg/mL (≈ 0.401 µM). It also gave an MIC [4] of 0.13 µg/mL (≈ 0.208 µM), an MIC [5] of 2 µg/mL (≈ 3.21 µM) and an MIC [6] of 0.031 µg/mL (≈ 0.0497 µM). The MIC [7] was 0.25 µg/mL (≈ 0.401 µM), the MIC [8] was 0.25 µg/mL (≈ 0.401 µM) and the MIC [9] was 0.063 µg/mL (≈ 0.101 µM). The MIC [10] was 0.5 µg/mL (≈ 0.802 µM), the MIC [11] was at most 0.008 µg/mL and the MIC [12] was 0.13 µg/mL (≈ 0.208 µM). It also gave an MIC [13] of 0.25 µg/mL (≈ 0.401 µM), an MIC [14] of at most 0.008 µg/mL and an MIC [15] of 2 µg/mL (≈ 3.21 µM). It also gave an MIC [16] of 1 µg/mL (≈ 1.6 µM), an MIC [17] of 1 µg/mL (≈ 1.6 µM) and an MIC [18] of 0.25 µg/mL (≈ 0.401 µM). It also gave an MIC [19] of 0.5 µg/mL (≈ 0.802 µM), an MIC [20] of 0.063 µg/mL (≈ 0.101 µM) and an MIC [21] of 0.25 µg/mL (≈ 0.401 µM). For the same compound, the MIC [22] was 4 µg/mL (≈ 6.41 µM), the MIC [23] was 8 µg/mL (≈ 12.8 µM) and the MIC [24] was 4 µg/mL (≈ 6.41 µM). The MIC [25] was over 128 µg/mL.
With `CC(C)(O/N=C(\C(=O)NC1C(=O)N2C(C(=O)[O-])=C(CSc3nc(N)nc(N)[n+]3-c3ccccc3)CS[C@H]12)c1csc(N)n1)C(=O)O` (stereo partly drawn) [Compound I-25, 7-[(Z)-2-(2-aminothiazol-4-yl) -2-(2-carboxyprop-2-oxyimino)acetamido]-3-(4,6-diamino-1-phenyl-1,3,5-triazinium-2-yl)thiomethyl-3-cephem-4-carboxylate] the MIC [1] was 16 µg/mL (≈ 23.3 µM), the MIC [2] was 128 µg/mL (≈ 186 µM) and the MIC [3] was 0.5 µg/mL (≈ 0.728 µM). For the same compound, the MIC [4] was 0.5 µg/mL (≈ 0.728 µM), the MIC [5] was 2 µg/mL (≈ 2.91 µM) and the MIC [6] was 0.13 µg/mL (≈ 0.189 µM). For the same compound, the MIC [7] was 0.13 µg/mL (≈ 0.189 µM), the MIC [8] was 0.25 µg/mL (≈ 0.364 µM) and the MIC [9] was 0.25 µg/mL (≈ 0.364 µM). It also gave an MIC [10] of 0.5 µg/mL (≈ 0.728 µM), an MIC [11] of at most 0.008 µg/mL and an MIC [12] of 0.13 µg/mL (≈ 0.189 µM). For the same compound, the MIC [13] was 0.13 µg/mL (≈ 0.189 µM), the MIC [14] was at most 0.008 µg/mL and the MIC [15] was 4 µg/mL (≈ 5.82 µM). The MIC [16] was 1 µg/mL (≈ 1.46 µM), the MIC [17] was 2 µg/mL (≈ 2.91 µM) and the MIC [18] was 0.25 µg/mL (≈ 0.364 µM). For the same compound, the MIC [19] was 0.13 µg/mL (≈ 0.189 µM), the MIC [20] was 0.13 µg/mL (≈ 0.189 µM) and the MIC [21] was 0.25 µg/mL (≈ 0.364 µM). It also gave an MIC [22] of 4 µg/mL (≈ 5.82 µM), an MIC [23] of 4 µg/mL (≈ 5.82 µM) and an MIC [24] of 4 µg/mL (≈ 5.82 µM). It also gave an MIC [25] of over 128 µg/mL.
